Here are results for four molecules from patent publication US7053064B2, “Compounds for the treatment of tobacco dependence and withdrawal” (The McLean Hospital Corporation, priority 2002, dated 2006).

The structures appear in SMILES notation. Read-outs that look alike come from different tables or passages of the source.

The test system of data set [1] is mammals. To be noted: cited from earlier work.
The test system of data set [2] is humans. The settings on record: cited from earlier work.
The conditions of data set [3]: cited from earlier work.
The conditions of data set [4]: cited from earlier work. This is another data set of the same source.
In data set [5] the test system is human subjects. The experiment in a line: effects of citicoline on tobacco use (cigarettes smoked per day) versus placebo. Format: in vivo. The settings on record: compared to placebo, FIG. 1. The text has this:
FIG. 1 is a graph of the effects of citicoline on tobacco use.

Where [6] appears, read: major excretion route, % of dose.

In the case of `CC(=O)OC[C@H]1O[C@@H](n2ccc(=O)[nH]c2=O)[C@H](OC(C)=O)[C@@H]1OC(C)=O` [triacetyl uridine], the tolerability result in data set [1] (in vivo) is given as “well tolerated”.
For `CN(CC(=O)O)C(=N)N` [Creatine, creatine], the tolerability result in data set [2] is listed as “well tolerated at relatively high doses”.
For the molecule `O=c1ccn([C@@H]2O[C@H](CO)[C@@H](O)[C@H]2O)c(=O)[nH]1` [uridine], the tolerability result in data set [2] and in data set [1] (mammals) was “well tolerated” each time.
Consider `C[N+](C)(C)CCOP(=O)(O)OP(=O)([O-])OC[C@H]1O[C@@H](n2ccc(N)nc2=O)[C@H](O)[C@@H]1O` [CDP-choline, cytidine 5′-diphosphocholine], for which, in data set [3] (% of dose), the “rest of the dose metabolized and retained in tissues” value is reported as 83.9%. Further, in data set [3] (administered either orally or intravenously), the “conversion into circulating metabolites” value is “rapidly converted into the two major circulating metabolites, choline and cytidine”. For the same molecule, in data set [3] (setting [6]), the excretion via lung is 12.9% and the excretion via urine is on record as 2.4%. For the same molecule, in data set [3] (orally administered), the “CDP-choline and/or its metabolites absorbed” value was “more than 99%” and the excreted in feces result is listed as “less than 1%”. Moreover, the “reported cases of overdoses” value in data set [4] (in vivo) is listed as “no reported cases of overdoses”. Moreover, in data set [4] (preclinical studies, salivation, lacrimation, urination, defecation, vomiting), the “toxicity symptoms on ingestion of large amounts” value is on record as “common cholinergic symptoms”. The tolerability result in data set [1] (mammals) is “well tolerated”. Besides, the “usage of tobacco (number of cigarettes smoked per day)” value in data set [5] is “reduces the usage of tobacco”.
